# Source: patent publication US6207648A, “Methods of using cytochrome P450 reductase for the enhancement of P450-based anti-cancer gene therapy” (priority 1998, dated 2001)
# Entries after “also recorded” stand apart in the source; their conditions may differ. Like-named read-outs stand apart in the source and are kept apart here.
# Assays:
# [1] = system: 9L/wt cells; assay: Intrinsic chemosensitivity of 9L/wt cells to chemically activated CPA and IFA; type: cell-based, rat
# Method: 9L/wt cells seeded at 2000 cells/ well in 48-well plates were treated for 3-4 hours with increasing concentrations of 4-hydroperoxy-CPA or 4-hydroxyperoxy-IFA (0 to 100 μM). Cells were then incubated in fresh drug-free media and allowed to grow for 4 days. Cell growth as a percent of drug-free controls was then determined by crystal violet staining. Data shown are mean±range for duplicate samples.
# Briefly, culture dishes were washed once with phosphate buffered saline (PBS), stained for 10 minutes with crystal violet (1.25 g crystal violet (Sigma) dissolved in 500 ml containing 50 ml of 37% formaldehyde and 450 ml methanol), and then washed with PBS, twice for 20 minutes per wash. Absorbance values were measured in an SLT Spectra microtiter plate reader using a 595 nm filter. Background absorbance determined from wells containing culture media alone was subtracted from each value.
# [2] = system: 9L gliosarcoma cells (parental, CYP2B1+, CYP2B1+ RED+++); assay: In vitro growth inhibition assay, XTT (Example 1); conditions: for increase of cell survival ratio in CYP2B1+ RED+++ cells / rescue of CYP2B1+ and CYP2B1+ RED+++ cells from CPA toxicity: 1 mM CPA, AADP 0.5 mM or DPI 5 μM; for rescue of CYP2B1+ and CYP2B1+ RED+++ cells from CPA toxicity: FIG. 4
# Method: Cells (1000/well) seeded in 96-well plates were treated with the indicated concentrations of CPA for 4 days. Corresponding controls received no drug treatment. Cell survival was determined by an XTT calorimetric assay. Data (mean for triplicate samples) were expressed as growth ratio (%), i. e., cell number (XTT activity) in drug treated plates as a percentage of the corresponding drug-free controls.
# Cells (500/well) seeded in 96-well plates were treated with 1 mM cyclophosphamide in the absence or presence of the RED inhibitors AADP (0.5 mM) or DPI (5 μM). Corresponding controls received no drug treatment. Cell survival was determined by an XTT colorimetric assay. Data (mean for triplicate samples) are expressed as growth ratio (%), i.e., cell number (XTT activity) in drug treated plates as a percentage of the corresponding drug-free controls and are representative of 2-3 independent experiments. AADP and DPI were added to the cells 30 minutes prior to CPA treatment.
# (B) Growth inhibition assay--Cells (1000/well) seeded in 96 well plates were treated with the indicated concentrations of CPA for 4-5 days. Corresponding controls received no drug treatment. Cell survival was determined by an XTT colorimetric assay, a cell proliferation assay that measures mitochondrial dehydrogenase activity of viable cells (Scudiero, D. A., et al., Cancer Res. 48:4827-4833 (1988)).
# [3] = system: 9L, 9L/2B1 and 9L/2B1/RED cells; assay: Adriamycin growth inhibition assay; type: cell-based, rat
# Method: The indicated 9L, 9L/2B1 and 9L/2B1/RED clonal cell lines, described in Example 1, were treated with Adriamycin for 2 days at the indicated drug concentrations. Cytotoxicity was measured after 5 days continuous culture using a growth inhibition assay, as described under FIG. 2B of Example 1. […] Data shown are averages of duplicates.
# (§1) Corresponding controls received no drug treatment.
# 9L gliosarcoma cell lines stably expressing rat P450 2B1 and rat RED: The following rat 9L gliosarcoma transfectants were those already described in Example 1: P3 and P17, which stably express P450 gene CYP2B1; 9L-lacZ, which stably expresses the E. coli β-galactosidase gene; R26, which stably expresses rat RED but not P450; and PR1, PR7, PR11, which stably express rat P450 2B1 and rat RED.
# [4] = system: 9L/pBabe bystander cells; assay: Bystander cytotoxicity/co-culture with cell culture inserts; type: cell-based, rat; conditions: Rattus norvegicus, 96 h, 9L/2B6/reductase, 0.67 mM
# Method: FIGS. 18A and 18B are graphs depicting the bystander cytotoxicity of 9L/2B6/reductase and 9L/2B6 cells. In FIG. 18A, bystander cytotoxicity of 9L/2B6/reductase cells is compared to that of 9L/2B6 cells. In both cases, 9L/pBabe served as the bystander cells. 9L/pBabe cells were plated in duplicate at 10^5 cells/well of a 6-well plate (lower chamber). 9L/2B6/reductase cells or 9L/2B6 cells were plated in 25 mm cell culture inserts (upper chamber) at concentrations ranging from 10^4 to 6×10^5 cells, corresponding to ratios of 0.1 to 6 relative to the bystander 9L/pBabe cells growing in the lower chamber, as shown on the x-axis. Cells were incubated in a total volume of 3 ml Dulbecco's minimal essential medium (DMEM), 10% FBS, containing 1 mM CPA, final CPA concentration.
# The experimental design was the same as in FIG. 18A, except that the final drug concentration was 0.67 mM. Data shown for both panels correspond to the survival of 9L/pBabe bystander cells in the lower chamber.
# Bystander cytotoxicity/co-culture experiments: 9L/pBabe cells were plated in duplicate at 10^5 cells/well in the lower chamber of a 6-well Falcon co-culture plate (30 mm diameter wells) (Falcon 3046). 9L/2B6/reductase cells were plated in 25 mm cell culture inserts (0.4 μm pore size; Falcon 3090), at dilutions ranging from 0. 1 to 6 times the number of 9L/pBabe cells plated in the lower chamber. […] Relative cell numbers were quantitated 4 days later by crystal violet staining.
# [5] = in vivo; cited from earlier work
# [6] = system: human cytochrome P450s; conditions: cited from earlier work
# [7] = system: rodent and human tumor xenograft models; conditions: cited from earlier work
# [8] = system: 9L/pBabe, 9L/2B6, 9L/hRED and 9L/2B6/hRED gliosarcoma cells
# Method: Cells were seeded at 4000 cells/well in 48-well plates and treated with increasing concentrations of CPA for 4 days. Cell growth in comparison to drug-free controls was determined by crystal violet staining and is presented as mean±SD for n=3 replicates.
# FIG. 21 is a graph depicting the cytotoxic effects of the bioreductive drug TPZ toward 9L/pBabe control cells and 9L cells transduced with retroviruses encoding human RED and/or P450 2B6 under normoxic culture conditions. Cells were seeded at 4000 cells/well in 48-well plates and treated with increasing concentrations of TPZ for 4 days. Cell growth in comparison to drug-free controls was determined by crystal violet staining and is presented as mean±SD for n=3 replicates.
# FIG. 22 is a graph depicting the cytotoxicity of increasing concentrations of TPZ under hypoxic conditions (1% O2) toward 9L tumor cells transduced with retroviruses encoding P450 2B6 and/or human RED. 9L/pBabe cells served as controls. Cells were seeded at 4000 cells/well in 48-well plates and treated with increasing concentrations of TPZ for 4 days. Cell growth in comparison to drug-free controls was determined by crystal violet staining and is presented as mean±SD for n=3 replicates.
# FIGS. 24A, 24B and 24C are graphs depicting the cytotoxic effects of TPZ (5 or 10 μM, as indicated) in combination with increasing concentrations of CPA under normoxic culture conditions (19.6% O2, 5% CO2). The data shown were obtained using 9L/2B6/hRED cells (FIG. 24A), 9L/hRED cells (FIG. 24B) and 9L/pBabe (control) cells (FIG. 24C). Data were compared to the cytotoxicity of increasing concentrations of CPA alone (i. e., in the absence of TPZ) measured using the same pools of tumor cells. Cells were seeded at 4000 cells/well in 48-well plates and then treated with the indicated drug concentrations for 4 days. Cell growth in comparison to drug-free controls (i.e., in the absence of CPA and TPZ) was determined by crystal violet staining and is presented as mean±SD for n=3 replicates.
# FIGS. 25A, 25B and 25C are graphs depicting the cytotoxic effects of TPZ (0.5 or 1.5 μM, as indicated) in combination with increasing concentrations of CPA under hypoxic culture conditions (1% O2, 5% CO2). The data shown were obtained using 9L/2B6/hRED cells (FIG. 25A), 9L/hRED cells (FIG. 25B) and 9L/pBabe (control) cells (FIG. 25C). Data were compared to the cytotoxicity of increasing concentrations of CPA alone (i.e., in the absence of TPZ) measured using the same pools of tumor cells. Cells were seeded at 4000 cells/well in 48-well plates and then treated with the indicated drug concentrations for 4 days. Cell growth in comparison to drug-free controls (i.e., in the absence of CPA and TPZ) was determined by crystal violet staining and is presented as mean±SD for n=3 replicates.
# Cytotoxicity assays: To evaluate the chemosensitivity of the P450- and P450/RED-expressing 9L tumor cells, cells were plated in triplicate at 4000 cells/well of a 48-well plate 18-24 hours prior to drug treatment. Cells were then treated with drugs (0 to 1 mM CPA or 0 to 50 μM TPZ, as indicated in each experiment) and placed in a tissue culture incubator maintained under hypoxic conditions (1% O2, 5% CO2, 94% N2) or under normoxic conditions (19.6% O2, 5% CO2, 75.4% N2) for a period of 4 days. 9L/pBabe cells, which were transduced with the empty retroviral plasmid pBabe-puro (see, Example 2), served as controls. Cells remaining after this time were quantitated using a crystal violet/alcohol-extraction assay, as described under Example 2. Data are presented as cell number relative to drug-free controls, mean±SD values for triplicate samples, unless indicated otherwise.
# [9] = system: 9L gliosarcoma cells (parental, CYP2B1+, CYP2B1+ RED+++); assay: In vitro colony formation cytotoxicity assay (Example 1); type: cell-based, rat; conditions: FIG. 3A
# Excerpt: FIGS. 2A and 2C depict the results of a colony formation cytotoxicity assay.
# FIG. 3A depicts results from a colony formation cytotoxicity assay. […] The survival fraction is expressed as the number of colonies in each treatment group compared to the untreated control.
# as §1
# [10] = system: 9L tumor cells; assay: Control experiment: effect of semicarbazide on cell viability; type: cell-based, rat; conditions: 5 mM, up to 48 hours
# [11] = system: P450 2C9; conditions: cited from earlier work
# [12] = system: CYP2C9; conditions: subset of cancer patients; cited from earlier work
smiles,measurement,setting,value
O=P1(N(CCCl)CCCl)NC(OO)CCO1 (stereo not shown) [4-hydroperoxy-CPA],sensitivity of 9L cells to activated CPA compared to activated IFA,"[1]; 0 to 100 μM, 3-4 h, 4 days regrowth",approximately 3 fold
same,intrinsic sensitivity of 9L cells to activated CPA compared to activated IFA,[1]; FIG. 16,greater intrinsic sensitivity
"Nc1ccc[n+]([C@@H]2O[C@H](COP(=O)([O-])OP(=O)(O)OC[C@H]3O[C@@H](n4cnc5c(N)ncnc54)[C@H](O)[C@@H]3O)[C@@H](O)[C@H]2O)c1 [AADP, 3-aminopyridine adenine dinucleotide]",toxicity to the cells in absence of CPA,[2]; 0.5 mM,no toxicity to the cells
same,increase of cell survival ratio in CYP2B1+ RED+++ cells,[2],2-3 fold
same,rescue of CYP2B1+ and CYP2B1+ RED+++ cells from CPA toxicity,[2],partially rescued
"COc1cccc2c1C(=O)c1c(O)c3c(c(O)c1C2=O)C[C@@](O)(C(=O)CO)C[C@@H]3O[C@H]1C[C@H](N)[C@H](O)[C@H](C)O1 [Adriamycin, doxorubicin]",toxicity to 9L and 9L/lacZ cells without P450 metabolism,"[3]; 100 nM, 2 days",toxic to 9L cells
same,effect of co-expression of RED with P450 2B1 on Adriamycin cytotoxicity,[3]; PR11 and PR7,large enhancement in Adriamycin cytotoxicity; also recorded: Enhanced cytotoxicity
same,chemosensitization to Adriamycin in line PR1,[3]; RED overexpression approximately 2-fold,more modest chemosensitization
same,effect of RED overexpression alone on Adriamycin cytotoxicity,[3]; line R26,did not enhance the cytotoxicity
"c1ccc2c(c1)[I+]c1ccccc1-2 [DPI, diphenyleneiodonium chloride]",increase of cell survival ratio in CYP2B1+ RED+++ cells,[2],3-5 fold
same,rescue of CYP2B1+ and CYP2B1+ RED+++ cells from CPA toxicity,[2],partially rescued
same,inhibition at 5 µM,"[2]; Rattus norvegicus, read-out: growth inhibition in absence of CPA",~20%
"O=P1(NCCCl)OCCCN1CCCl (stereo not shown) [IFA, ifosfamide]",cytotoxicity at 670 µM,"[4]; cell ratio 6:1, read-out: maximum bystander cytotoxicity",~50%
same,cytotoxicity at 670 µM,"[4]; cell ratios up to 3:1, read-out: bystander cytotoxicity",≤ 25%
same,side effects of systemic distribution of drug and alkylating metabolites,[5],"cardiotoxicity, renal toxicity, marrow suppression, and neurotoxoxicity"
"Clc1cnc(Oc2ccc(Oc3ncc(Cl)cc3Cl)cc2)c(Cl)c1 [TCPOBOP, 1,4-bis-2-(3,5-dichloropyridyloxybenzene)]",induction of human cytochrome P450s in colon and breast tumors,[6],profound inducer
"Nc1n[n+]([O-])c2ccccc2[n+]1[O-] [TPZ, 3-amino-1,2,4-benzotriazine-1,4-di-N-oxide]",effect of TPZ on activity of CPA and other cancer chemotherapeutics,[7]; in vivo,enhance the activity of CPA
same,bone marrow toxicity with TPZ combination,[7]; with CPA and other chemotherapeutics,corresponding increase in bone marrow toxicity
same,effect of P450 2B6 and RED on TPZ cytotoxicity,[8],substantial increase in cytotoxicity
same,effect of P450 2B6 expression alone on TPZ cytotoxicity,[8],no effect on the cytotoxicity
same,effect of P450 2B6 on TPZ cytotoxicity,[8],Some enhanced cytotoxicity
same,effect of RED gene transfer on TPZ sensitivity,[8],chemosensitized 9L tumor cells
same,"effect of RED gene transfer, with or without P450 2B6, on TPZ cytotoxicity",[8],increase in TPZ cytotoxicity
same,intrinsic cytotoxicity under hypoxic vs normoxic conditions,[8],intrinsically more cytotoxic
CC(C)(C(=O)c1cccnc1)c1cccnc1 [metyrapone],blocking of CPA cytotoxicity toward CYP2B1+ cells,"[2]; 10 μM and higher, P3 and P17, FIG. 3",significantly blocked the cytotoxic effects
same,inhibition of CPA cytotoxicity in RED-overexpressing CYP2B1+ cells,"[2]; 10 μM, FIG. 3",only slightly inhibited the cytotoxic effect
same,blocking of CPA cytotoxicity toward CYP2B1+ cells,"[9]; 10 μM and higher, P3 and P17",significantly blocked the cytotoxic effects
same,inhibition of CPA cytotoxicity in RED-overexpressing CYP2B1+ cells,[9]; 10 μM,only slightly inhibited the cytotoxic effect
NNC(N)=O [semicarbazide],effect on cell viability,[10],no detectable effect on cell viability
Nc1ccc(S(=O)(=O)Nc2ccnn2-c2ccccc2)cc1 [sulfaphenazole],inhibition of P450 2C9-catalyzed human liver CPA activation,[11],inhibits P450 2C9-catalyzed human liver CPA activation
same,effect on elimination of CPA,[12],slows the elimination of CPA
